Reference: patent US20110178023A1, “Use Of SCO-Spondin Peptides For Inhibiting Or Preventing Neuronal Apoptosis Mediated By Cell Death Receptor Ligands” (Institut National de la Sante et de la Recherche Medicale …, priority 2007, published 2011)

Tested on: embryonic rat hippocampal cells
Experiment: Apoptosis detection (TUNEL, DAPI counter-staining) in treated hippocampal cell cultures
Type: cell-based
Conditions: for apoptosis induced by cell death receptor pathway (Fas, TRAIL-R) in hippocampal cells: TSR peptide added to culture medium, 7 days of treatment; for number of apoptotic cells with death receptor ligand alone: FasL 20 ng/mL or TRAIL 80 ng/mL alone
Method: FIG. 2: Histogramm representing the percentage of apoptotic cells outside the clusters compared with the total number of cells, data provided by only one experiment realized in triplicate. In each assay, apoptotic labelling with TUNEL method were counted on 4 photos aleatory on each slide, and having always at least 1 neurosphere. The cultures were treated (cases TSR, FasL, TSR+FasL, TRAIL, TSR+TRAIL, FasL+TRAIL and TSR+FasL+TRAIL) or not treated (control, c) during 7 days with a TSR peptide concentration of 375 μg/mL and/or 20 ng/mL of FasL and/or 80 ng/mL of TRAIL).
Cultures of hippocampal cells from foetal rats: Cells were obtained from E18 rat brains. Tissues were removed in dissection medium (Hank's Balanced Salt Solution, HBSS plus antibiotics). Composition of dissection medium HBSS plus antibiotics): • potassium chloride (KCl): 400 mg/L • potassium phosphate (KH2PO4): 60 mg/L • sodium bicarbonate (NaHCO3): 350 mg/L • sodium chloride (NaCl): 8000 mg/L • sodium phosphate (Na2HPO4): 48 mg/L • D-glucose: 1000 mg/L • penicillin-streptomycin: 100 units/mL
Meninges were removed from the embryos brains and hippocampus was dissected in a sterile petri dish in HBSS plus antibiotic medium. After centrifugation cells were ressuspended in culture medium MEM with Earl Salts supplemented with B27, EGF, FGF-2 and antibiotics. The composition of the culture medium was the following: • L-arginine hydrochloride: […] • L-cystine: 24 mg/L • L-glutamine: 292 mg/L • L-histidine-H2O Hydrochloride: 42 mg/L • L-isoleucine: 52 mg/L • L-leucine 52 mg/L • L-lysine Hydrochloride: 73 mg/l, • L-methionine: 15 mg/L • L-phenylalanine: 32 mg/L • L-threonine: 48 mg/L • L-tryptophane: 10 mg/L • L-tyrosine: 36 mg/L • L-valine: 46 mg/L • choline Chloride: 1 mg/L • D-calcium pantothenate: 1 mg/L • folic acid: 1 mg/L • I-inositol: 2 mg/L • Niacinamide: 1 mg/L • pyridoxal Hydrochloride: 1 mg/L • Riboflavine: 0.1 mg/L • thiamine Hydrochloride: 1 mg/L • calcium chloride (CaCl2-2H2O): 264 mg/L • magnesium sulfate (MgSO4-7H2O): 200 mg/L • potassium chloride (KCl): 400 mg/L • sodium bicarbonate (NaHCO3): 2200 mg/L • sodium chloride (NaCl): 6800 mg/L • sodium phosphate (NaH2PO4-2H2O): 158 mg/L • D-glucose: 4500 mg/L • phenol red: 10 mg/L • Sodium pyruvate: 110.04 mg/L • B27 medium (Invitrogen) 50×: 2% v/v • EGF: 20 μg/L • FGF-2: 20 μg/L • Penicillin-streptomycin: 100 units/mL
Hippocampus fragments were dissociated mechanically with 1 syringe 1 ml and 1 needle 25G and added with 1 mL of culture medium then centrifuged at 1200 rpm for 10 min. The supernatant is then removed and the cell pellet is resupended in 1 mL of culture medium. Other mechanic dissociation was performed with a seringe 1 mL and a needle 25G. Cell count was determined with Malassez hemocytometer and viability of cells was evaluated by counting the cells which have not absorbed the Trypan blue. Then cells are seeded in 48-well plates, at 40 000 cells by well in 500 μL of culture medium, on culture dishes precovered with collagen.
Preparation of precovered dishes with collagen: After an incubation of 10 min in absolute ethanol, the glass dishes were sterilized by heating 2H at 120° C. Sterilized glass dishes (10 mm diameter) was put on culture well and covered with a 0.1 mg/mL collagen calf skin solution. After 1 hr incubation at 37° C., the excess of solution is removed and the plate is maintained one night under hood of culture in order to let dry the plates. Before use, the wells were washed twice with 200 μL sterile distillated water.
Treatment of embryonic rat hippocampal cells: After 5 days of culture, cells were cultured in medium without growth factors (MEM with Earl salts, B27 and antibiotics) with different conditions of treatment combinating TSR peptide (WSGWSSCSRSCG—SEQ ID No 8) (375 μg/mL), FasL (20 ng/mL) and TRAIL (80 ng/mL). […]

WSGWSSCSRSCG [TSR peptide, peptide derived from the TSR (thrombospondin type 1 units) of SCO-spondin]
number of apoptotic cells, apoptosis induced by FasL (TSR peptide 375 μg/mL + FasL 20 ng/mL, 7 days, compared to FasL culture, FIG. 2): decreased
number of apoptotic cells, apoptosis induced by TRAIL (TSR peptide 375 μg/mL + TRAIL 80 ng/mL, 7 days, compared to TRAIL culture, FIG. 2): decreased in the presence of TSR peptide to a level comparable to control cells
level of apoptosis (final statement, presumably FasL+TRAIL culture) (TSR peptide 375 μg/mL, 7 days, FIG. 2, inducer not given): restores the basal level of apoptosis
apoptosis induced by cell death receptor pathway (Fas, TRAIL-R) in hippocampal cells: inhibits the apoptosis
apoptosis induced by cell death receptor pathway (Fas, TRAIL-R) in hippocampal cells (listed as peptide TSR): decreased
effect on basal apoptosis (number of apoptotic cells) (TSR peptide alone 375 μg/mL, 7 days, compared to control cultures, FIG. 2): no effect

B1: TRAIL: TNF-related apoptosis inducing ligand, cell death receptor ligand used to induce apoptosis (protein, UniProt P50591 1-281, looked up)
Tumor necrosis factor ligand …: MAMMEVQGGPSLGQTCVLIVIFTVLLQSLCVAVTYVYFTNELKQMQDKYSKSGIACFLKEDDSYWDPNDEESMNSPCWQVKWQLRQLVRKMILRTSEETISTVQEKQQNISPLVRERGPQRVAAHITGTRGRSNTLSSPNSKNEKALGRKINSWESSRSGHSFLSNLHLRNGELVIHEKGFYYIYSQTYFRFQEEIKENTKNDKQMVQYIYKYTSYPDPILLMKSARNSCWSKDAEYGLYSIYQGGIFELKENDRIFVSVTNEHLIDMDHEASFFGAFLVG
number of apoptotic cells with death receptor ligand alone (7 days, FIG. 2): more important than in the presence of FasL

B2: FasL: Fas ligand, cell death receptor ligand of the TNF superfamily used to induce apoptosis (protein, UniProt P48023 130-281, looked up)
Tumor necrosis factor ligand …: QIGHPSPPPEKKELRKVAHLTGKSNSRSMPLEWEDTYGIVLLSGVKYKKGGLVINETGLYFVYSKVYFRGQSCNNLPLSHKVYMRNSKYPQDLVMMEGKMMSYCTTGQMWARSSYLGAVFNLTSADHLYVNVSELSLVNFEESQTFFGLYKL
number of apoptotic cells with death receptor ligand alone (7 days, FIG. 2): increased
